Results taken from PubChem BioAssay AID463203 (Broad Institute, 2010).
Calls of active or inactive are those of the source.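 The calls were made as follows: active = more than half of replicate measurements showing over 20% loss of kinase signal relative to plate controls; inconclusive = some but at most half of replicates over 20% loss; inactive = no replicate over 20% signal loss.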

Target: Glycogen synthase kinase-3 alpha (Homo sapiens) (UniProt P49840)
Experiment: concentration-response blocking of human GSK3A – biochemical, luminescence, cell-free homogeneous, retest, dose response (AID 463203)
Conditions: GSK-3 alpha enzyme, ADP-Glo luminescence, 60 min

Sequence of Glycogen synthase kinase-3 alpha (Homo sapiens) (P49840 whole entry, looked up): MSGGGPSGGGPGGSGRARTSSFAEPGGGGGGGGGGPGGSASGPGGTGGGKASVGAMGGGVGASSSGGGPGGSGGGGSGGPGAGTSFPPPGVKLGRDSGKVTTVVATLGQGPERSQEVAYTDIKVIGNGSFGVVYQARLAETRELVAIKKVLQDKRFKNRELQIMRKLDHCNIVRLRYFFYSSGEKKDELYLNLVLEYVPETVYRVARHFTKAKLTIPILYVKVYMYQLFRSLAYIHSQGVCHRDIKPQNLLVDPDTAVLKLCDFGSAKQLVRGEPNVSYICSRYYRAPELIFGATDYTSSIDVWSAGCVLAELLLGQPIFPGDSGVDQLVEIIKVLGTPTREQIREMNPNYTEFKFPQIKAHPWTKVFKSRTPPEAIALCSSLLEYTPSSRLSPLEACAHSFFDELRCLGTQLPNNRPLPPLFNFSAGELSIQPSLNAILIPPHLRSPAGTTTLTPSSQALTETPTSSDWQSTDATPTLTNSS

SMILES | AC50
COc1ccc(CCNc2nc(C)c(C(C)=O)s2)cc1OC | > 30 µM (inactive)
CCOCCOC(=O)c1[nH]c2c(c1C)C(=O)CC(c1cc(OC)c(OC)c(OC)c1)C2 (stereo not given) | > 30 µM (inactive)
COc1ccc(-c2cn3cccnc3n2)cc1NC(=O)C(C)C | > 30 µM (inactive)
O=C(Nc1cccnc1)c1scc2c1OCCO2 | 23.5 µM
C=C(C)CSc1nnc([C@@H](N)Cc2c[nH]c3ccccc23)o1 | > 30 µM (inactive)
COc1cc(SC)ccc1C(=O)Nc1nc(C)cc(C)n1 | > 30 µM (inactive)
COc1ccccc1-n1c(O)c(C=NCCCn2ccnc2)c(=O)[nH]c1=O | 18.1 µM
Cc1ccnc(NC(=O)CCC(=O)N(CC(=O)NCc2ccccc2)Cc2ccco2)c1 | 13.4 µM
COc1ccccc1C(=O)Nc1nc(C)cc(C)n1 | > 30 µM (inactive)
CCCc1c(C(=O)N/N=C/c2cccnc2)nnn1-c1nonc1N | > 30 µM (inactive)
CC(=O)c1cc(-c2ccc(F)cc2)n(CCC(=O)Nc2cc(C)[nH]n2)c1C | 11.9 µM
COc1ccc2nc(NC(=O)CCc3cc(OC)c(OC)c(OC)c3)sc2c1 | 7.29 µM
Cn1c(=O)c2[nH]cnc2n(-c2ccccc2)c1=O | > 30 µM (inactive)
CC(=NCCCn1ccnc1)c1c(O)n(C2CCCCC2)c(=O)[nH]c1=O | 6.77 µM
CCCOc1ccc(-c2c(C(=O)N/N=C(\C)c3ccncc3)nnn2-c2nonc2N)cc1 | > 30 µM (inactive)
NS(=O)(=O)c1ccc(Nc2nc(-c3ccc(F)cc3)cs2)cc1 | 26.2 µM
COc1ccccc1-n1c(O)c(C=NCc2ccc3c(c2)OCO3)c(=O)[nH]c1=O | 31.3 µM
CCOc1ccc(C(=O)c2cnc3ccccc3c2N2CCN(CC)CC2)cc1 | > 30 µM (inactive)
C=CCNc1nc(N)c(C(=O)c2ccc3c(c2)OCO3)s1 | 0.211 µM
COc1ccc(OC)c(/C=C2\Oc3cc(OCC(=O)N4CCC[C@H]4C(=O)O)ccc3C2=O)c1 | > 30 µM (inactive)
CNc1nc(Cl)c(SC)c(NC2CCCCC2)n1 | > 30 µM (inactive)
Cc1cc2nc(-c3ccc(=O)[nH]c3)n(Cc3ccccc3)c2cc1C | > 30 µM (inactive)
COc1ccc(S(=O)(=O)N[C@H](C(=O)O)C(C)C)cc1 | > 30 µM (inactive)
N#Cc1c2c(c(NCc3ccco3)n3c1nc1ccccc13)CCC2 | > 30 µM (inactive)
Cc1cccc(C)c1OCC(O)CNC(C)C (stereo not given) | > 30 µM (inactive)
CCCCOC(=O)Nc1nnc(COc2ccccc2)s1 | > 30 µM (inactive)
COc1ccc2nc(NC(=O)CSc3cn[nH]n3)sc2c1 | 9.56 µM

SMILES | AC50
Cc1nnc(N/N=C/c2ccc(-c3ccc(Br)cc3)o2)n1N | 15.4 µM
CC(C)C(=O)Nc1cccc2nsnc12 | > 30 µM (inactive)
CCOc1ccc(-n2c(SCC(=O)Nc3ccccc3C)n[nH]c2=O)cc1 | > 30 µM (inactive)
COc1ccc2nc(NC(=O)CSc3nnc(-c4ccoc4C)n3C)sc2c1 | 4.62 µM
Cc1cc(=O)[nH]c2c(C)c(Cl)ccc12 | > 30 µM (inactive)
CCc1ccc(N2CSC3=C(C#N)C(c4cccs4)CC(=O)N3C2)cc1 (stereo not given) | 28.8 µM
CC(=O)c1cnc(Nc2ccccc2)s1 | 20.2 µM
COc1ccc(OCc2nc(N)nc(Nc3cccc(C)c3C)n2)cc1 | > 30 µM (inactive)
Cc1nc2ncnn2c(C)c1Cc1cccc(F)c1 | > 30 µM (inactive)
Cc1ccc(-c2cn3cccnc3n2)cc1NC(=O)c1ccc(Br)o1 | > 30 µM (inactive)
CCCCn1c(O)c(C(CC)=NCCCn2ccnc2)c(=O)[nH]c1=O | 13.9 µM
COc1ccc(CC(=O)Oc2ccccc2C)cc1 | > 30 µM (inactive)
CCSc1cc(N2CCCC2)nc(-c2ccccc2)n1 | > 30 µM (inactive)
Cc1ccc(N(C)C(=O)C2CCCN2S(=O)(=O)c2cccc3nsnc23)cc1 (stereo not given) | 29.8 µM
O=C(NC1=NCCS1)c1ccc(Cl)cc1 | > 30 µM (inactive)
CCOC(=O)c1[nH]c(C)c(C(=O)OCCOc2cccc(C)c2)c1C | > 30 µM (inactive)
COc1ccc(NC(=O)c2c(Nc3ccccc3)sc(C(=O)c3ccc(F)cc3)c2N)cc1 | > 30 µM (inactive)
O=C1c2ccccc2-c2onc3ccc(NCc4ccco4)c1c23 | > 30 µM (inactive)
O=S(=O)(c1cccs1)N1CCN(c2ccnc3cc(Cl)ccc23)CC1 | > 30 µM (inactive)
Cc1ccc2c(c1N)C(=O)c1ccccc1C2=O | > 30 µM (inactive)
CC1(C)CC(=O)C=C(c2cccc(O)c2)C1 | > 30 µM (inactive)
CCCNc1nc(Cl)nc(Nc2ccc(Cl)cc2)n1 | > 30 µM (inactive)
O=C(c1ccc(Cl)cc1)c1cnc(Nc2ccccc2)s1 | > 30 µM (inactive)
CC(C)OCCCNc1nc2c([nH]1)c(=O)n(C)c(=O)n2C | > 30 µM (inactive)
Cc1ccc(-n2nnnc2CSc2nnc(-c3ccc(O)cc3)o2)cc1 | 5.51 µM
COc1ccc(CC(=S)N2CCOCC2)cc1OC | > 30 µM (inactive)
O=c1ccc(-c2nc3ccccc3n2Cc2ccc(Cl)cc2)c[nH]1 | > 30 µM (inactive)

SMILES | AC50
Nc1nonc1-n1nnc(C(=O)N/N=C/c2ccc(Cl)cc2Cl)c1CN1CCOCC1 | > 30 µM (inactive)
O=C(COC(=O)C1CCC1)c1c[nH]c2ccccc12 | > 30 µM (inactive)
O=C(O)c1cc(-c2ccc(/C=N/N3C(=O)C4C5C=CC(C6CC56)C4C3=O)o2)ccc1Cl (stereo not given) | > 30 µM (inactive)
Cc1c(C)n(CCCN(C)C)c2ncnc(NC3CCCCC3)c12 | > 30 µM (inactive)
Cc1ccnc(NC(=O)CCC(=O)N(CC(=O)NCc2ccc(F)cc2)Cc2ccco2)c1 | > 30 µM (inactive)
Cc1cccc(N(CC(O)CN2CCCC2)S(=O)(=O)c2ccccc2)c1 (stereo not given) | > 30 µM (inactive)
O=c1c(O)c(-c2cc(O)c(O)c(O)c2)oc2cc(O)cc(O)c12 | 4.13 µM
CC1(C)CC(=O)c2cnc(NCC3CCCO3)nc2C1 (stereo not given) | > 30 µM (inactive)
CCCc1c(C(=O)N/N=C/C(C)=C/c2ccco2)nnn1-c1nonc1N | > 30 µM (inactive)
Cc1c(C(=O)N2CCN(c3ccccc3)CC2)oc2c(Cl)cccc12 | > 30 µM (inactive)
COc1ccc(-c2cc(C(=O)N3CCN(c4ccccc4OC)CC3)no2)cc1OC | > 30 µM (inactive)
CCOc1ccc(N2C(=O)C3C(c4ccccc4F)NN(C(=O)c4ccc(C)cc4)C3C2=O)cc1 (stereo not given) | > 30 µM (inactive)
Fc1cccc(/C=N/Nc2cc(N3CCOCC3)ncn2)c1 | > 30 µM (inactive)
O=C1c2cnc3ncnn3c2CC2c3ccccc3CCN12 (stereo not given) | > 30 µM (inactive)
CCNc1c(C(=O)O)ccc2c1C(=O)c1ccccc1C2=O | > 30 µM (inactive)
COc1ccccc1/C=N/NC(=O)c1ccccc1Cl | > 30 µM (inactive)
Cc1cc(C(C#N)c2cccc(Cl)c2)n2ncnc2n1 (stereo not given) | 5.78 µM
O=C(NC(=S)NCC1COc2ccccc2O1)c1ccccc1 (stereo not given) | > 30 µM (inactive)
CCc1ccc(C2CC(c3cccc(Cl)c3)n3nc(N)nc3N2)cc1 (stereo not given) | > 30 µM (inactive)
Oc1cccc(Nc2c3ccccc3nc3ccccc23)c1 | > 30 µM (inactive)
O=C(Nc1cccc(-c2cnc3ccccc3n2)c1)c1ccncc1 | > 30 µM (inactive)
Cc1cccc(NC(=O)CSc2nc3[nH]ncc3c(=O)n2-c2ccccc2)c1 | > 30 µM (inactive)
COc1ccc(C(=O)C[n+]2cccc(Br)c2)cc1 | > 30 µM (inactive)
Cc1ccc2c(c1)N(CCC(=O)NC(C)C)C(=O)CO2 | > 30 µM (inactive)
Cc1ccc(OCC(=O)N2CCN(c3nnc(-c4ccc(C)cc4)c4ccccc34)CC2)cc1 | > 30 µM (inactive)
CCCCCCCCCCCCCCCC[N+](C)(C)CC | > 30 µM (inactive)
CN1CCC(=NNC(=O)C(=O)NC2CCCC2)CC1 | > 30 µM (inactive)

SMILES | AC50
CC1CCN(Cc2c(O)ccc3c2O/C(=C\c2ccco2)C3=O)CC1 | 4.41 µM
CC1(c2ccccc2)CC(C)(C)N2C(=O)/C(=C3\SC(=S)NC3=O)c3cccc1c32 (stereo not given) | > 30 µM (inactive)
CN1/C(=C/C(=O)C2CC2)C(C)(C)c2ccccc21 | > 30 µM (inactive)
Cc1ccc2c(c1)COc1c3ccc(C(=O)N4CCOCC4)cc3nn1-2 | > 30 µM (inactive)
CCN(CC)c1ccc2ccc(=O)oc2c1 | > 30 µM (inactive)
Cc1nn(-c2ccccc2)c(C)c1/C=C/C(=O)OCC(=O)Nc1ccc(C(N)=O)cc1 | > 30 µM (inactive)
COc1ccc2c3c(cccc13)C(=O)CC2 | > 30 µM (inactive)
CCc1ccc(N2CC(C(=O)Nc3nccs3)CC2=O)cc1 (stereo not given) | > 30 µM (inactive)
C[C@H]1CN([C@@H](C)CO)C(=O)c2cccc(NC(=O)c3cnccn3)c2O[C@@H]1CN(C)S(=O)(=O)c1ccc(F)cc1 | 7.19 µM
CCOC(=O)CSc1nc(C)[nH]c1[N+](=O)[O-] | > 30 µM (inactive)
CC(=O)Nc1ccc(OC(=O)CC2SC(=O)NC2=O)cc1 (stereo not given) | > 30 µM (inactive)
CC(OC(=O)Cc1c[nH]c2ccccc12)C(=O)N(C)c1ccccc1 (stereo not given) | > 30 µM (inactive)
COc1cc(/C=N/NC(=O)c2ccoc2C)ccc1O | > 30 µM (inactive)
Cn1cc([N+](=O)[O-])c(C(=O)Nc2cnn(Cc3ccc(F)cc3)c2)n1 | > 30 µM (inactive)
CCC(C)c1ccc(NC(=S)NCc2cccs2)cc1 (stereo not given) | > 30 µM (inactive)
CCCOc1cc2c(C#N)c(N3CCCC3)nc(N)c2c(N)n1 | > 30 µM (inactive)
Cc1ccc(C2C(C#N)=C(N)Oc3nc(-c4ccccc4)[nH]c32)o1 (stereo not given) | > 30 µM (inactive)
CCc1ccc(/C=N/NC(=O)c2nnn(-c3nonc3N)c2C(C)C)cc1 | > 30 µM (inactive)
Nc1c(S(=O)(=O)c2ccccc2)nnn1-c1ccccc1 | > 30 µM (inactive)
O=C(Oc1cccc([N+](=O)[O-])c1)N1CCCCC1 | > 30 µM (inactive)
O=C(Nc1cccc(F)c1)C1CCCN1S(=O)(=O)c1cccc2cccnc12 (stereo not given) | 11.8 µM
C[C@H](CO)N1C[C@H](C)[C@@H](CN(C)S(=O)(=O)c2ccccc2)Oc2c(NC(=O)c3ccncc3)cccc2C1=O | > 30 µM (inactive)
N#Cc1cc(Cl)c(NCC2CCCO2)cc1C#N (stereo not given) | > 30 µM (inactive)
CN(C)C(=O)Oc1ccc2c(c1)O/C(=C\c1cccc([N+](=O)[O-])c1)C2=O | > 30 µM (inactive)
